System: IL-5 production in human blood
Assay: In vitro inhibition of IL-5 production in human blood (phytohemagglutinin-stimulated whole blood, ELISA)
Assay type: cell-based
Conditions: test dose 1×10^−6 M, phytohemagglutinin 2 μg/ml, 48 hours
Method: EXAMPLE C.1: IN VITRO INHIBITION OF IL-5 PRODUCTION IN HUMAN BLOOD
Peripheral blood from healthy male donors was drawn into heparinized syringes (12.5 U heparin/ml). Blood samples were three-fold diluted in RMPI 1640 medium (Life Technologies, Belgium) supplemented with 2 mM L-glutamine, 100 U/ml penicillin and 100 μg/ml streptomycin, and 300 μl fractions were distributed in 24-well multidisc plates. Blood samples were preincubated (60 minutes at 37° C.) in a humidified 6% CO2-atmosphere with 100 μl of drug solvent (final concentration 0.02% dimethylsulfoxide in RPMI 1640) or with 100 μl of an appropriate dose of test compound before being stimulated by the addition of 100 μl of phytohemagglutinin HA17 (Murex, UK) at a final concentration of 2 μg/ml. After 48 hours, cell-free supernatant fluids were collected by centrifugation and stored at −70° C. until tested for the presence of IL-5.
IL-5 measurements were conducted as described in Van Wauwe et al. (1996, Inflamm Res, 45, 357-363) on page 358 using ELISA.
Table 6 lists the percentage inhibition of IL-5 production (column “% inh”) at a test dose of 1×10^−6 M, or in case the percentage inhibition is marked with an “*” 1×10^−5 M, for the compounds of the present invention.

Row | SMILES | % inh. (percentage inhibition of IL-5 production)
1 | CC(C)(c1nc(-c2ccccc2Cl)c(C=O)s1)c1c(Cl)cc(-n2ncc(=O)[nH]c2=O)cc1Cl [Compound 46] | 44%
2 | CCc1sc(C(C)(C)c2c(Cl)cc(-n3ncc(=O)[nH]c3=O)cc2Cl)nc1-c1ccc(-c2ccccc2)cc1 [Compound 48] | 58%
3 | CC(C)(c1nc(-c2ccccc2)c(-c2cccc([N+](=O)[O-])c2)s1)c1c(Cl)cc(-n2ncc(=O)[nH]c2=O)cc1Cl [Compound 49] | 95%
4 | COc1cccc(-c2sc(C(C)(C)c3c(Cl)cc(-n4ncc(=O)[nH]c4=O)cc3Cl)nc2-c2ccccc2)c1 [Compound 55] | 92%
5 | CC(C)(c1nc(-c2ccccc2Cl)c(-c2cccc(C(=O)O)c2)s1)c1c(Cl)cc(-n2ncc(=O)[nH]c2=O)cc1Cl [Compound 56] | −4%
6 | CC(C)(c1nc(-c2ccccc2Cl)c(-c2cccc(C#N)c2)s1)c1c(Cl)cc(-n2ncc(=O)[nH]c2=O)cc1Cl [Compound 57] | 85%
7 | CC(C)(c1nc(-c2ccccc2)c(-c2cccc(NS(N)(=O)=O)c2)s1)c1c(Cl)cc(-n2ncc(=O)[nH]c2=O)cc1Cl [Compound 60] | 28%
8 | CC(C)OC(=O)c1cccc(-c2sc(C(C)(C)c3c(Cl)cc(-n4ncc(=O)[nH]c4=O)cc3Cl)nc2-c2ccccc2Cl)c1 [Compound 65] | 36%
9 | CC(C)(c1nc(-c2ccccc2)c(-c2cccc(OS(N)(=O)=O)c2)s1)c1c(Cl)cc(-n2ncc(=O)[nH]c2=O)cc1Cl [Compound 66, 3-[2-[1-[2,6-dichloro-4-(4,5-dihydro-3,5-dioxo-1,2,4-triazin-2(3H)-yl)phenyl]-1-methylethyl]-4-phenyl-5-thiazolyl]phenylsulfamate (ester)] | 53%
10 | COCCNCc1cccc(-c2sc(C(C)(C)c3c(Cl)cc(-n4ncc(=O)[nH]c4=O)cc3Cl)nc2-c2ccccc2Cl)c1.Cl [Compound 69] | 45%
11 | CC(C)(c1nc(-c2ccc(Cl)s2)cs1)c1c(Cl)cc(-n2ncc(=O)[nH]c2=O)cc1Cl [Compound 73] | 84%
12 | CC(C)(c1nc(-c2ccc([N+](=O)[O-])s2)cs1)c1c(Cl)cc(-n2ncc(=O)[nH]c2=O)cc1Cl [Compound 74] | 76%
13 | Cc1ccsc1-c1csc(C(C)(C)c2c(Cl)cc(-n3ncc(=O)[nH]c3=O)cc2Cl)n1 [Compound 75] | 91%
14 | Cc1ccc(-c2csc(C(C)(C)c3c(Cl)cc(-n4ncc(=O)[nH]c4=O)cc3Cl)n2)s1 [Compound 76] | 75%
15 | CC(C)(c1nc(-c2ccc(Br)s2)cs1)c1c(Cl)cc(-n2ncc(=O)[nH]c2=O)cc1Cl [Compound 77] | 84%
16 | CC(C)(c1nc(-c2ccc(C#N)s2)cs1)c1c(Cl)cc(-n2ncc(=O)[nH]c2=O)cc1Cl [Compound 78] | 79%
17 | CC(C)(c1nc(-c2csc3ccccc23)cs1)c1c(Cl)cc(-n2ncc(=O)[nH]c2=O)cc1Cl [Compound 79] | 75%
18 | CC(C)(c1nc(-c2cccnc2)cs1)c1c(Cl)cc(-n2ncc(=O)[nH]c2=O)cc1Cl [Compound 82] | 85%
19 | CC(C)(c1nc(-c2ccc(-c3cccs3)s2)cs1)c1c(Cl)cc(-n2ncc(=O)[nH]c2=O)cc1Cl [Compound 84] | 14%
20 | CC(C)(c1noc(-c2ccccc2F)n1)c1c(Cl)cc(-n2ncc(=O)[nH]c2=O)cc1Cl [Compound 86] | 88%
21 | CC(C)(c1noc(-c2ccccc2Cl)n1)c1c(Cl)cc(-n2ncc(=O)[nH]c2=O)cc1Cl [Compound 89] | 84%
22 | CC(C)(c1noc(-c2cccc(F)c2)n1)c1c(Cl)cc(-n2ncc(=O)[nH]c2=O)cc1Cl [Compound 90] | 91%
23 | Cc1cccc(-c2nc(C(C)(C)c3c(Cl)cc(-n4ncc(=O)[nH]c4=O)cc3Cl)no2)c1 [Compound 91] | 81%
24 | CC(C)(c1noc(-c2cccs2)n1)c1c(Cl)cc(-n2ncc(=O)[nH]c2=O)cc1Cl [Compound 92] | 80%
25 | CC(C)(c1noc(-c2cccc(Cl)c2)n1)c1c(Cl)cc(-n2ncc(=O)[nH]c2=O)cc1Cl [Compound 93] | 84%

Same assay, conditions: test dose 1×10^−6 M, phytohemagglutinin 2 μg/ml, 48 hours, read-out: % inh. (percentage inhibition of IL-5 production)

Row | SMILES | inhibition at 1 µM
26 | CC(C)(c1nc(-c2ccccc2)c(-c2cccc(N)c2)s1)c1c(Cl)cc(-n2ncc(=O)[nH]c2=O)cc1Cl [Compound 50, 2-[4-[1-[5-(3-aminophenyl)4-phenyl-2-thiazolyl]-1-methylethyl]-3,5-dichlorophenyl]-1,2,4-triazine-3,5(2H,4H)-dione] | 91%
27 | CC(=O)Nc1cccc(-c2sc(C(C)(C)c3c(Cl)cc(-n4ncc(=O)[nH]c4=O)cc3Cl)nc2-c2ccccc2)c1 [Compound 51, N-[3-[2-[1-[2,6-dichloro-4-(4,5-dihydro-3,5-dioxo-1,2,4-triazin-2(3H)-yl)phenyl]-1-methylethyl]4-phenyl-5-thiazolyl]phenyl]-acetamide] | 73%
28 | CC(C)(c1nc(-c2ccccc2)c(-c2cccc(NC(N)=O)c2)s1)c1c(Cl)cc(-n2ncc(=O)[nH]c2=O)cc1Cl [Compound 54, N-[3-[2-[1-[2,6-dichloro-4-(4,5-dihydro-3,5-dioxo-1,2,4-triazin-2(3H)-yl)phenyl]-1-methylethyl]-4-phenyl-5-thiazolyl]phenyl]urea] | 61%
29 | CC(C)(c1nc(-c2ccccc2)c(-c2cccc(O)c2)s1)c1c(Cl)cc(-n2ncc(=O)[nH]c2=O)cc1Cl [Compound 58, 2-[3,5-dichloro-4-[1-[5-(3-hydroxyphenyl)4-phenyl-2-thiazolyl]-1-methyl-ethyl]phenyl]-1,2,4-triazine-3,5(2H,4H)-dione] | 84%
30 | CC(C)(c1nc(-c2ccccc2Cl)c(-c2cccc(CO)c2)s1)c1c(Cl)cc(-n2ncc(=O)[nH]c2=O)cc1Cl [Compound 59, 2-[3,5-dichloro-4-[1-[4-(2-chlorophenyl)-5-[3-(hydroxymethyl)phenyl]-2-thiazolyl]-1-methylethyl]phenyl]-1,2,4-triazine-3,5(2H,4H)-dione] | 82%
31 | CN1CCN(C(=O)c2cccc(-c3sc(C(C)(C)c4c(Cl)cc(-n5ncc(=O)[nH]c5=O)cc4Cl)nc3-c3ccccc3Cl)c2)CC1 [Compound 61, 1-[3-[2-[1-[2,6-dichloro-4-(4,5-dihydro-3,5-dioxo-1,2,4-triazin-2(3H)-yl)phenyl]-1-methylethyl]-4-(2-chlorophenyl)-5-thiazolyl]benzoyl]-4-methylpiperazine] | 29%
32 | CC(C)(c1cc(Cl)c(-n2ncc(=O)[nH]c2=O)c(Cl)c1)c1nc(-c2ccccc2Cl)c(-c2cccc(C(N)=O)c2)s1 [Compound 62, 3-[2-[1-[3,5-dichloro-4-(4,5-dihydro-3,5-dioxo-1,2,4-triazin-2(3H)-yl)phenyl]-1-methylethyl]-4-(2-chlorophenyl)-5-thiazolyl]benzamide] | 53%
33 | CC(C)(c1nc(-c2ccccc2)c(-c2cccc(NC(=O)N3CCNCC3)c2)s1)c1c(Cl)cc(-n2ncc(=O)[nH]c2=O)cc1Cl [Compound 71, N-[3-[2-[1-[2,6-dichloro-4-(4,5-dihydro-3,5-dioxo-1,2,4-triazin-2(3H)-yl)phenyl]-1-methylethyl]-4-phenyl-5-thiazolyl]-phenyl]-1-piperazinecarboxamide monohydrate] | 27%
34 | CC(C)(c1nc(-c2ccsc2)cs1)c1c(Cl)cc(-n2ncc(=O)[nH]c2=O)cc1Cl [Compound 72, 2-[3,5-dichloro-4-[1-methyl-1-[4-(3-thienyl)-2-thiazolyl]ethyl]phenyl]-1,2,4-triazine-3,5(2H,4H)-dione] | 84%
35 | CC(C)(c1nc(-c2ccc(N(S(C)(=O)=O)S(C)(=O)=O)s2)cs1)c1c(Cl)cc(-n2ncc(=O)[nH]c2=O)cc1Cl [Compound 81, N-[5-[2-[1-[2,6-dichloro-4-(4,5-dihydro-3,5-dioxo-1,2,4-triazine-2(3H)-yl)phenyl]-1-methylethyl]-4-thiazolyl]-2-thienyl]-N-(methylsulfonyl)methanesulfonamide] | 34%
36 | CC(C)(c1nc(-c2ccco2)cs1)c1c(Cl)cc(-n2ncc(=O)[nH]c2=O)cc1Cl [Compound 83, 2-[3,5-dichloro-4-[1-[4-(2-furanyl)-2-thiazolyl]-1-methylethyl]phenyl]-1,2,4-triazine-3,5(2H,4H)-dione] | 78%
37 | Cc1ccccc1-c1nc(C(C)(C)c2c(Cl)cc(-n3ncc(=O)[nH]c3=O)cc2Cl)no1 [Compound 87, 2-[3,5-dichloro-4-[1-methyl-1-[5-(2-methylphenyl)-1,2,4-oxadiazol-3-yl]ethyl]phenyl]-1,2,4-triazine-3,5(2H,4H)-dione] | 89%
38 | CC(C)(c1noc(-c2ccccc2)n1)c1c(Cl)cc(-n2ncc(=O)[nH]c2=O)cc1Cl [Compound 88, 2-[3,5-dichloro-4-[1-methyl-1-(5-phenyl-1,2,4-oxadiazol-3-yl)ethyl]phenyl]-1,2,4-triazine-3,5(2H,4H)-dione] | 94%

From patent publication US6894046B2, “IL-5 inhibiting 6-azauracil derivatives” (Janssen Pharmaceutica N.V., priority 1998, dated 2005)
